In ChEMBL document CHEMBL5543145, “Discovery of the First-in-Class G9a/GLP PROTAC Degrader” (J Med Chem, 2024):
Calls of active or inactive are those of the source. No cut-off for these calls is given here.

Columns and labels:
[1] = target: T1, von Hippel-Lindau disease tumor suppressor/Histone-lysine N-methyltransferase EHMT2 (Homo sapiens, UniProt Q96KQ7+P40337); assay: PROTAC activity at G9a/VHL in human 22Rv1 cells assessed as induction of G9a degradation at 3 uM incubated for 24 hrs by Western blot analysis relative to control; type: cell-based
[2] = target: T2, von Hippel-Lindau disease tumor suppressor/Histone-lysine N-methyltransferase EHMT1 (Homo sapiens, UniProt Q9H9B1+P40337); assay: PROTAC activity at GLP/VHL in human 22Rv1 cells assessed as induction of GLP degradation at 0.3 uM incubated for 24 hrs by Western blot analysis relative to control; type: cell-based
[3] = target: T2, von Hippel-Lindau disease tumor suppressor/Histone-lysine N-methyltransferase EHMT1; assay: PROTAC activity at GLP/VHL in human 22Rv1 cells assessed as induction of GLP degradation at 3 uM incubated for 24 hrs by Western blot analysis relative to control; type: cell-based
[4] = target: T1, von Hippel-Lindau disease tumor suppressor/Histone-lysine N-methyltransferase EHMT2; assay: PROTAC activity at G9a/VHL in human 22Rv1 cells assessed as effect on G9a level upto 3 uM measured for 24 hrs by Western blot analysis; type: cell-based
[5] = target: T2, von Hippel-Lindau disease tumor suppressor/Histone-lysine N-methyltransferase EHMT1; assay: PROTAC activity at GLP/VHL in human 22Rv1 cells assessed as effect on GLP level upto 3 uM measured for 24 hrs by Western blot analysis; type: cell-based
[6] = target: T1, von Hippel-Lindau disease tumor suppressor/Histone-lysine N-methyltransferase EHMT2; assay: PROTAC activity at G9a/VHL in human 22Rv1 cells assessed as induction of G9a degradation at 0.3 uM incubated for 24 hrs by Western blot analysis relative to control; type: cell-based
[7] = system: CWR22R; assay: Cytotoxicity against human 22Rv1 cells assessed as growth inhibition measured for 7 days; type: functional; conditions: 22Rv1, 168 h, time 7 day
[8] = target: T2, von Hippel-Lindau disease tumor suppressor/Histone-lysine N-methyltransferase EHMT1; assay: PROTAC activity at GLP/VHL in human 22Rv1 cells assessed as effect on VHL level at 3 uM incubated for 24 hrs by RT-qPCR analysis; type: cell-based
[9] = system: K562; assay: Cytotoxicity against human K562 cells assessed as reduction in cell viability incubated for 8 days; type: functional, cell-based; conditions: K562, 192 h
[10] = system: K562; assay: Cytotoxicity against human K562 cells assessed as growth inhibition incubated for 7 days; type: functional; conditions: time 7.0 day
[11] = system: NCI-H1299; assay: Cytotoxicity against human NCI-H1299 cells assessed as growth inhibition incubated for 8 days; type: functional; conditions: NCI-H1299, 192 h, time 8 day
[12] = target: T2, von Hippel-Lindau disease tumor suppressor/Histone-lysine N-methyltransferase EHMT1; assay: PROTAC activity at GLP/VHL in human 22Rv1 cells assessed as induction of GLP degradation at 1 uM incubated for 24 hrs by Western blot analysis; type: cell-based

T1 sequence (P40337 whole entry partner): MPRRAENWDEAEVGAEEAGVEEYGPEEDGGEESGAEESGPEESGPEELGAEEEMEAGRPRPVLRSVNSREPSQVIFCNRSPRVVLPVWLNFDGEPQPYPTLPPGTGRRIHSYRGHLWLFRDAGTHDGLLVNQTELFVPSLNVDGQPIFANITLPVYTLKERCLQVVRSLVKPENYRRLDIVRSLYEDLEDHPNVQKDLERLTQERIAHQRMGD
T1 sequence (Q96KQ7 2-1210 limits assumed): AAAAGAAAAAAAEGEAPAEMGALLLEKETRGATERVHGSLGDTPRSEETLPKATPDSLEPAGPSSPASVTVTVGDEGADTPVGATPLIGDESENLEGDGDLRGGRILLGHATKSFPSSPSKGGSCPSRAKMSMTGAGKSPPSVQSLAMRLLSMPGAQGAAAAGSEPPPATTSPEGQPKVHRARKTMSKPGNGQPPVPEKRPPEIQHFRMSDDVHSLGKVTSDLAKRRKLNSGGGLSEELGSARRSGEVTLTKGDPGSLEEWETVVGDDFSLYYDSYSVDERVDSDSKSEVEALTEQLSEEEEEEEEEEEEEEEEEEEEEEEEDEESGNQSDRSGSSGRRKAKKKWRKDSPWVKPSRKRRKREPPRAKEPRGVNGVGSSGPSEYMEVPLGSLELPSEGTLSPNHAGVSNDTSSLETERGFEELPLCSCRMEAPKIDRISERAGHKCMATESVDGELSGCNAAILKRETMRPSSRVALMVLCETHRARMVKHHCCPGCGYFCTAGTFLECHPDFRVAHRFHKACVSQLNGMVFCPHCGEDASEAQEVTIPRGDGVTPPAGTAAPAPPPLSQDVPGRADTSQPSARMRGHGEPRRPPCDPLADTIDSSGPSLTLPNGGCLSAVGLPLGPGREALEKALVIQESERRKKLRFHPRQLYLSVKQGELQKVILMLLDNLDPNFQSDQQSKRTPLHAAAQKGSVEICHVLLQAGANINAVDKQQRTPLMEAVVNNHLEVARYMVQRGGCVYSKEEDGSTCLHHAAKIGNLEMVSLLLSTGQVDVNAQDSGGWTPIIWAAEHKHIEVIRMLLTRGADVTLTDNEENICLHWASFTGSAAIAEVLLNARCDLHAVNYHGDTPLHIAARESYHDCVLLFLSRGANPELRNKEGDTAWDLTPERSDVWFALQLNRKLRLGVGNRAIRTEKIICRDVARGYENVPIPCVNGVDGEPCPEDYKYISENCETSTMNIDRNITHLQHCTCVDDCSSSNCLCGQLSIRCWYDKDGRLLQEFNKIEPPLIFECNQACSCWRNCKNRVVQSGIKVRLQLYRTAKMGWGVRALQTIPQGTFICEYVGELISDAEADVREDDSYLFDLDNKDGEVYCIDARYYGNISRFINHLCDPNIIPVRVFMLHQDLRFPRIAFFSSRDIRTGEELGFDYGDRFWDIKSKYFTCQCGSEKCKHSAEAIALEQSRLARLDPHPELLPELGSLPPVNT
T2 sequence (P40337 whole entry partner): as the sequence (P40337 whole entry partner) above
T2 sequence (Q9H9B1 2-1298 limits assumed): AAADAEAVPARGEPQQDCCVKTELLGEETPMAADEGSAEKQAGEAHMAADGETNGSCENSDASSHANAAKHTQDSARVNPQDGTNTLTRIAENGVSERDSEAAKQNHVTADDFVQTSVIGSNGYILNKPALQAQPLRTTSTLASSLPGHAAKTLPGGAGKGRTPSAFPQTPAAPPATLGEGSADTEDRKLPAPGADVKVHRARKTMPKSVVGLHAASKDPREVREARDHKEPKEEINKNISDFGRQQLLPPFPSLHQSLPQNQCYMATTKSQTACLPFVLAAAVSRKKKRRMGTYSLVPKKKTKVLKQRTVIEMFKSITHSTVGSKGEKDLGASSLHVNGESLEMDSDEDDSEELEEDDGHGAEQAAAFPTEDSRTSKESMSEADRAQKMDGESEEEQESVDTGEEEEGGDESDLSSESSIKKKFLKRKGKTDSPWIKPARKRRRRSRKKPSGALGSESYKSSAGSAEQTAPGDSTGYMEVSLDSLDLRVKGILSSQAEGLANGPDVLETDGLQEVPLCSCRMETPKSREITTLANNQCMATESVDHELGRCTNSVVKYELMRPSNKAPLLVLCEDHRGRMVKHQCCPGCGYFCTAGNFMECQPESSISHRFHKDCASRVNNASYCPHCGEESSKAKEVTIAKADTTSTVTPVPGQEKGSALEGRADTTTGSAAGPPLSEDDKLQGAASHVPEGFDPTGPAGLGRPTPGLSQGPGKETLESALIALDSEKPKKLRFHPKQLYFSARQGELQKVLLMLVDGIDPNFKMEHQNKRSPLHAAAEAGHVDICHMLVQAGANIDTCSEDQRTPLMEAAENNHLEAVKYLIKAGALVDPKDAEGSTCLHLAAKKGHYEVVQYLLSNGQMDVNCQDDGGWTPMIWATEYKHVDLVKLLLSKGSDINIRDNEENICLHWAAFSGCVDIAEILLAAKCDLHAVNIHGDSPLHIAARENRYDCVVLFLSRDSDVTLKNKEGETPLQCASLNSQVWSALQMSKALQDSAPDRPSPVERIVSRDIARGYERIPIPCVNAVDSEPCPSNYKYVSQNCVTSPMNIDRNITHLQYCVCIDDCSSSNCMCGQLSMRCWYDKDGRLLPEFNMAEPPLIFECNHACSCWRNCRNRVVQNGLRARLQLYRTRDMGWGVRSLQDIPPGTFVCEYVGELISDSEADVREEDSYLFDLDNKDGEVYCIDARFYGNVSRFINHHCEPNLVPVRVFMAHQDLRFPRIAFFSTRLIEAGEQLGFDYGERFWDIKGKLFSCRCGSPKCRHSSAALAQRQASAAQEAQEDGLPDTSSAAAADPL

Compound | Emax [1] [%] | Emax [2] [%] | Emax [3] [%] | Emax [6] [%] | further results
COc1cc2c(NC3CCN(CCCC(=O)NCCOCCOCCC(=O)N[C@H](C(=O)N4C[C@H](O)C[C@H]4C(=O)NCc4ccc(-c5scnc5C)cc4)C(C)(C)C)CC3)nc(N3CCC(F)(F)CC3)nc2cc1OCCCN1CCCC1 | < 13 | < 7 | 21 | – | –
COc1cc2c(NC3CCN(CCCC(=O)NCCCCCCCCCCCC(=O)N[C@H](C(=O)N4C[C@@H](O)C[C@@H]4C(=O)NCc4ccc(-c5scnc5C)cc4)C(C)(C)C)CC3)nc(N3CCC(F)(F)CC3)nc2cc1OCCCN1CCCC1 | – | – | – | – | Activity [4]: inactive; Activity [5]: inactive
COc1cc2c(NC3CCN(CCCC(=O)NCCOCCOCCOCCC(=O)N[C@H](C(=O)N4C[C@H](O)C[C@H]4C(=O)NCc4ccc(-c5scnc5C)cc4)C(C)(C)C)CC3)nc(N3CCC(F)(F)CC3)nc2cc1OCCCN1CCCC1 | – | < 16 | < 27 | – | –
COc1cc2c(NC3CCN(CCCC(=O)NCCCCCCCCCC(=O)N[C@H](C(=O)N4C[C@H](O)C[C@H]4C(=O)NCc4ccc(-c5scnc5C)cc4)C(C)(C)C)CC3)nc(N3CCC(F)(F)CC3)nc2cc1OCCCN1CCCC1 | < 92 | 84 | < 96 | 67 | –
COc1cc2c(NN3CCN(CCCC(=O)NCCCCCCCCC(=O)N[C@H](C(=O)N4C[C@H](O)C[C@H]4C(=O)NCc4ccc(-c5scnc5C)cc4)C(C)(C)C)CC3)nc(N3CCC(F)(F)CC3)nc2cc1OCCCN1CCCC1 | 87 | < 27 | 86 | – | –
COc1cc2c(NC3CCN(C(C)C)CC3)nc(N3CCC(F)(F)CC3)nc2cc1OCCCN1CCCC1 | – | – | – | – | GI50 [7]: > 10 µM; Activity [8]: Active; IC50 [9]: > 10 µM; Activity [10]: inactive; GI50 [11]: > 10 µM; Activity [12]: inactive
COc1cc2c(NC3CCN(CCCC(=O)NCCCCCCCCCCC(=O)N[C@H](C(=O)N4C[C@H](O)C[C@H]4C(=O)NCc4ccc(-c5scnc5C)cc4)C(C)(C)C)CC3)nc(N3CCC(F)(F)CC3)nc2cc1OCCCN1CCCC1 | < 92 | 69 | < 94 | 79 | –

More lines, main results first:

Emax [1] [%] | Emax [2] [%] | Emax [3] [%] | Emax [6] [%] | Compound | further results
< 11 | < 9 | < 11 | – | COc1cc2c(NC3CCN(CCCC(=O)NCCCCC(=O)N[C@H](C(=O)N4C[C@H](O)C[C@H]4C(=O)NCc4ccc(-c5scnc5C)cc4)C(C)(C)C)CC3)nc(N3CCC(F)(F)CC3)nc2cc1OCCCN1CCCC1 | –
– | < 10 | 88 | – | COc1cc2c(NC3CCN(CCCC(=O)NCCOCCC(=O)N[C@H](C(=O)N4C[C@H](O)C[C@H]4C(=O)NCc4ccc(-c5scnc5C)cc4)C(C)(C)C)CC3)nc(N3CCC(F)(F)CC3)nc2cc1OCCCN1CCCC1 | –
61 | 54 | 70 | 66 | COc1cc2c(NC3CCN(CCCC(=O)NCCC(=O)N[C@H](C(=O)N4C[C@H](O)C[C@H]4C(=O)NCc4ccc(-c5scnc5C)cc4)C(C)(C)C)CC3)nc(N3CCC(F)(F)CC3)nc2cc1OCCCN1CCCC1 | –
75 | < 28 | 68 | – | COc1cc2c(NC3CCN(CCCC(=O)NCCCCCCCC(=O)N[C@H](C(=O)N4C[C@H](O)C[C@H]4C(=O)NCc4ccc(-c5scnc5C)cc4)C(C)(C)C)CC3)nc(N3CCC(F)(F)CC3)nc2cc1OCCCN1CCCC1 | –
< 30 | < 7 | < 20 | < 10 | COc1cc2c(NC3CCN(CCCC(=O)NCCCCCCC(=O)N[C@H](C(=O)N4C[C@H](O)C[C@H]4C(=O)NCc4ccc(-c5scnc5C)cc4)C(C)(C)C)CC3)nc(N3CCC(F)(F)CC3)nc2cc1OCCCN1CCCC1 | –
< 30 | < 5 | < 19 | – | COc1cc2c(NC3CCN(CCCC(=O)NCCCCCC(=O)N[C@H](C(=O)N4C[C@H](O)C[C@H]4C(=O)NCc4ccc(-c5scnc5C)cc4)C(C)(C)C)CC3)nc(N3CCC(F)(F)CC3)nc2cc1OCCCN1CCCC1 | –
– | < 3 | 21 | < 8 | COc1cc2c(NC3CCN(CCCC(=O)NCCCC(=O)N[C@H](C(=O)N4C[C@H](O)C[C@H]4C(=O)NCc4ccc(-c5scnc5C)cc4)C(C)(C)C)CC3)nc(N3CCC(F)(F)CC3)nc2cc1OCCCN1CCCC1 | –
